Patent US20020111274A1, “1-alkyl-3-[1-(substituted phenyl) benzotriazol-6-yl] uracils” (BASF Aktiengesellschaft, priority 2000, published 2002)

Experiments:
Parameters in all cases: scale not given here
[1] = test system: ABUTH Velvetleaf; experiment: Postemergence herbicidal evaluation, ABUTH; type: in vivo, Abutilon theophrasti, Medic.; conditions: postemergence spray, rated about two-three weeks after treatment
Procedure, shortened: (§1)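 Seedlings grown about two weeks were sprayed with compound in 80/20 acetone/water containing 1.0% methylated seed oil, at the equivalent of about 0.006 to 0.400 kg/ha, through a nozzle at 40 psi. Plants were kept in the greenhouse and rated visually about two to three weeks after treatment.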

[2] = test system: CHEAL Lambsquarters, Common; experiment: Postemergence herbicidal evaluation, CHEAL; type: in vivo, Chenopodium album, L.; conditions: postemergence spray, rated about two-three weeks after treatment
Procedure, shortened: as §1

[3] = test system: TRZAWR Wheat, Winter, cv Riband; experiment: Preemergence herbicidal evaluation, TRZAWR; type: in vivo, Triticum aestivum; conditions: preemergence
Procedure, shortened: (§2)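 Seeds mixed with potting soil in cups, then sprayed preemergence with aqueous acetone test solution at about 0.013 to 0.800 kg per hectare equivalent. Cups kept under standard greenhouse care; plants rated on a visual scale four to five weeks after treatment.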

[4] = test system: GLXMAW Soybean, Williams; experiment: Postemergence herbicidal evaluation, GLXMAW; type: in vivo, Glycine max, (L.) Merr. cv Williams; conditions: postemergence spray, rated about two-three weeks after treatment
Procedure, shortened: as §1

[5] = test system: IPOHE Morningglory, Ivyleaf; experiment: Postemergence herbicidal evaluation, IPOHE; type: in vivo, Ipomoea hederacea, (L.) Jacq.; conditions: postemergence spray, rated about two-three weeks after treatment
Procedure, shortened: as §1

[6] = test system: TRZAWR Wheat, Winter, cv Riband; experiment: Postemergence herbicidal evaluation, TRZAWR; type: in vivo, Triticum aestivum; conditions: postemergence spray, rated about two-three weeks after treatment
Procedure, shortened: as §1

[7] = test system: GLXMAW Soybean, Williams; experiment: Preemergence herbicidal evaluation, GLXMAW; type: in vivo, Glycine max, (L.) Merr. cv Williams; conditions: preemergence
Procedure, shortened: as §2

[8] = test system: SETVI Foxtail, Green; experiment: Preemergence herbicidal evaluation, SETVI; type: in vivo, Setaria viridis, (L.) Beau; conditions: preemergence
Procedure, shortened: as §2

[9] = test system: GALAP Galium; experiment: Postemergence herbicidal evaluation, GALAP; type: in vivo, Galium aparine; conditions: postemergence spray, rated about two-three weeks after treatment
Procedure, shortened: as §1

[10] = test system: AMBEL Ragweed, Common; experiment: Postemergence herbicidal evaluation, AMBEL; type: in vivo, Ambrosia artemisifolia, L.; conditions: postemergence spray, rated about two-three weeks after treatment
Procedure, shortened: as §1

[11] = test system: GALAP Galium; experiment: Preemergence herbicidal evaluation, GALAP; type: in vivo, Galium aparine; conditions: preemergence
Procedure, shortened: as §2

[12] = test system: IPOHE Morningglory, Ivyleaf; experiment: Preemergence herbicidal evaluation, IPOHE; type: in vivo, Ipomoea hederacea, (L.) Jacq.; conditions: preemergence
Procedure, shortened: as §2

[13] = test system: CASOB Sicklepod; experiment: Preemergence herbicidal evaluation, CASOB; type: in vivo, Cassia obtusifolia, L.; conditions: preemergence
Procedure, shortened: as §2

[14] = test system: ORYSAT Rice, Tebonnet; experiment: Postemergence herbicidal evaluation, ORYSAT; type: in vivo, Oryza sativa, (L.); conditions: postemergence spray, rated about two-three weeks after treatment
Procedure, shortened: as §1

[15] = test system: ZEAMX Corn, Field; experiment: Preemergence herbicidal evaluation, ZEAMX; type: in vivo, Zea mays, L. (Sammel-Bezeichnung); conditions: preemergence
Procedure, shortened: as §2

[16] = test system: CHEAL Lambsquarters, Common; experiment: Preemergence herbicidal evaluation, CHEAL; type: in vivo, Chenopodium album, L.; conditions: preemergence
Procedure, shortened: as §2

[17] = test system: AMBEL Ragweed, Common; experiment: Preemergence herbicidal evaluation, AMBEL; type: in vivo, Ambrosia artemisifolia, L.; conditions: preemergence
Procedure, shortened: as §2

[18] = test system: ECHOG Barnyardgrass; experiment: Preemergence herbicidal evaluation, ECHOG; type: in vivo, Echinochloa crus-galli, (L.) Beau; conditions: preemergence
Procedure, shortened: as §2

[19] = test system: ABUTH Velvetleaf; experiment: Preemergence herbicidal evaluation, ABUTH; type: in vivo, Abutilon theophrasti, Medic.; conditions: preemergence
Procedure, shortened: as §2

[20] = test system: ORYSAT Rice, Tebonnet; experiment: Preemergence herbicidal evaluation, ORYSAT; type: in vivo, Oryza sativa, (L.); conditions: preemergence
Procedure, shortened: as §2

[21] = test system: SETVI Foxtail, Green; experiment: Postemergence herbicidal evaluation, SETVI; type: in vivo, Setaria viridis, (L.) Beau; conditions: postemergence spray, rated about two-three weeks after treatment
Procedure, shortened: as §1

[22] = test system: CASOB Sicklepod; experiment: Postemergence herbicidal evaluation, CASOB; type: in vivo, Cassia obtusifolia, L.; conditions: postemergence spray, rated about two-three weeks after treatment
Procedure, shortened: as §1

[23] = test system: ECHOG Barnyardgrass; experiment: Postemergence herbicidal evaluation, ECHOG; type: in vivo, Echinochloa crus-galli, (L.) Beau; conditions: postemergence spray, rated about two-three weeks after treatment
Procedure, shortened: as §1

[24] = test system: ZEAMX Corn, Field; experiment: Postemergence herbicidal evaluation, ZEAMX; type: in vivo, Zea mays, L. (Sammel-Bezeichnung); conditions: postemergence spray, rated about two-three weeks after treatment
Procedure, shortened: as §1

COc1ccc(C)c(-n2nnc3cc(F)c(-n4c(=O)cc(C(F)(F)F)n(C)c4=O)cc32)c1 [Example 22]
Postemergence herbicidal rating ABUTH ([1]; 0.008 kg/ha): 9.0
Postemergence herbicidal rating ABUTH ([1]; 0.016 kg/ha): 9.0
Postemergence herbicidal rating ABUTH ([1]; 0.032 kg/ha): 9.0
Postemergence herbicidal rating ABUTH ([1]; 0.062 kg/ha): 9.0
Postemergence herbicidal rating CHEAL ([2]; 0.008 kg/ha): 9.0
Postemergence herbicidal rating CHEAL ([2]; 0.016 kg/ha): 9.0
Postemergence herbicidal rating CHEAL ([2]; 0.032 kg/ha): 3.0
Postemergence herbicidal rating CHEAL ([2]; 0.062 kg/ha): 4.0
TRZAWR herbicidal rating ([3]; rate 0.016 kg/ha): 0.0
TRZAWR herbicidal rating ([3]; rate 0.032 kg/ha): 1.0
TRZAWR herbicidal rating ([3]; rate 0.062 kg/ha): 2.0
TRZAWR herbicidal rating ([3]; rate 0.125 kg/ha): 4.0
Postemergence herbicidal rating GLXMAW ([4]; 0.008 kg/ha): 4.0
Postemergence herbicidal rating GLXMAW ([4]; 0.016 kg/ha): 4.5
Postemergence herbicidal rating GLXMAW ([4]; 0.032 kg/ha): 4.0
Postemergence herbicidal rating GLXMAW ([4]; 0.062 kg/ha): 5.0
Postemergence herbicidal rating IPOHE ([5]; 0.008 kg/ha): 2.0
Postemergence herbicidal rating IPOHE ([5]; 0.016 kg/ha): 2.0
Postemergence herbicidal rating IPOHE ([5]; 0.032 kg/ha): 9.0
Postemergence herbicidal rating IPOHE ([5]; 0.062 kg/ha): 2.0
Postemergence herbicidal rating TRZAWR ([6]; 0.008 kg/ha): 3.0
Postemergence herbicidal rating TRZAWR ([6]; 0.016 kg/ha): 3.5
Postemergence herbicidal rating TRZAWR ([6]; 0.032 kg/ha): 4.0
Postemergence herbicidal rating TRZAWR ([6]; 0.062 kg/ha): 4.5
GLXMAW herbicidal rating ([7]; rate 0.016 kg/ha): 0.0
GLXMAW herbicidal rating ([7]; rate 0.032 kg/ha): 0.0
GLXMAW herbicidal rating ([7]; rate 0.062 kg/ha): 0.0
GLXMAW herbicidal rating ([7]; rate 0.125 kg/ha): 0.0
SETVI herbicidal rating ([8]; rate 0.016 kg/ha): 0.0
SETVI herbicidal rating ([8]; rate 0.032 kg/ha): 2.0
SETVI herbicidal rating ([8]; rate 0.062 kg/ha): 7.0
SETVI herbicidal rating ([8]; rate 0.125 kg/ha): 9.0
Postemergence herbicidal rating GALAP ([9]; 0.008 kg/ha): 0.0
Postemergence herbicidal rating GALAP ([9]; 0.016 kg/ha): 0.0
Postemergence herbicidal rating GALAP ([9]; 0.032 kg/ha): 3.0
Postemergence herbicidal rating GALAP ([9]; 0.062 kg/ha): 5.0
Postemergence herbicidal rating AMBEL ([10]; 0.008 kg/ha): 0.0
Postemergence herbicidal rating AMBEL ([10]; 0.016 kg/ha): 0.0
Postemergence herbicidal rating AMBEL ([10]; 0.032 kg/ha): 2.0
Postemergence herbicidal rating AMBEL ([10]; 0.062 kg/ha): 3.0
GALAP herbicidal rating ([11]; rate 0.016 kg/ha): 0.0
GALAP herbicidal rating ([11]; rate 0.032 kg/ha): 0.0
GALAP herbicidal rating ([11]; rate 0.062 kg/ha): 0.0
GALAP herbicidal rating ([11]; rate 0.125 kg/ha): 0.0
IPOHE herbicidal rating ([12]; rate 0.016 kg/ha): 0.0
IPOHE herbicidal rating ([12]; rate 0.032 kg/ha): 0.0
IPOHE herbicidal rating ([12]; rate 0.062 kg/ha): 0.0
IPOHE herbicidal rating ([12]; rate 0.125 kg/ha): 0.0
CASOB herbicidal rating ([13]; rate 0.016 kg/ha): 0.0
CASOB herbicidal rating ([13]; rate 0.032 kg/ha): 0.0
CASOB herbicidal rating ([13]; rate 0.062 kg/ha): 0.0
CASOB herbicidal rating ([13]; rate 0.125 kg/ha): 0.0
Postemergence herbicidal rating ORYSAT ([14]; 0.008 kg/ha): 2.0
Postemergence herbicidal rating ORYSAT ([14]; 0.016 kg/ha): 2.5
Postemergence herbicidal rating ORYSAT ([14]; 0.032 kg/ha): 3.0
Postemergence herbicidal rating ORYSAT ([14]; 0.062 kg/ha): 3.0
ZEAMX herbicidal rating ([15]; rate 0.016 kg/ha): 0.0
ZEAMX herbicidal rating ([15]; rate 0.032 kg/ha): 2.0
ZEAMX herbicidal rating ([15]; rate 0.062 kg/ha): 4.0
ZEAMX herbicidal rating ([15]; rate 0.125 kg/ha): 6.0
CHEAL herbicidal rating ([16]; rate 0.016 kg/ha): 9.0
CHEAL herbicidal rating ([16]; rate 0.032 kg/ha): 9.0
CHEAL herbicidal rating ([16]; rate 0.062 kg/ha): 9.0
CHEAL herbicidal rating ([16]; rate 0.125 kg/ha): 9.0
AMBEL herbicidal rating ([17]; rate 0.016 kg/ha): 0.0
AMBEL herbicidal rating ([17]; rate 0.032 kg/ha): 0.0
AMBEL herbicidal rating ([17]; rate 0.062 kg/ha): 0.0
AMBEL herbicidal rating ([17]; rate 0.125 kg/ha): 0.0
ECHCG herbicidal rating ([18]; rate 0.016 kg/ha): 0.0
ECHCG herbicidal rating ([18]; rate 0.032 kg/ha): 0.0
ECHCG herbicidal rating ([18]; rate 0.062 kg/ha): 2.0
ECHCG herbicidal rating ([18]; rate 0.125 kg/ha): 7.0
ABUTH herbicidal rating ([19]; rate 0.016 kg/ha): 0.0
ABUTH herbicidal rating ([19]; rate 0.032 kg/ha): 9.0
ABUTH herbicidal rating ([19]; rate 0.062 kg/ha): 9.0
ABUTH herbicidal rating ([19]; rate 0.125 kg/ha): 7.0
ORYSAT herbicidal rating ([20]; rate 0.016 kg/ha): 0.0
ORYSAT herbicidal rating ([20]; rate 0.032 kg/ha): 0.0
ORYSAT herbicidal rating ([20]; rate 0.062 kg/ha): 0.0
ORYSAT herbicidal rating ([20]; rate 0.125 kg/ha): 0.0
Postemergence herbicidal rating SETVI ([21]; 0.008 kg/ha): 0.0
Postemergence herbicidal rating SETVI ([21]; 0.016 kg/ha): 0.0
Postemergence herbicidal rating SETVI ([21]; 0.032 kg/ha): 0.0
Postemergence herbicidal rating SETVI ([21]; 0.062 kg/ha): 0.0
Postemergence herbicidal rating CASOB ([22]; 0.008 kg/ha): 0.0
Postemergence herbicidal rating CASOB ([22]; 0.016 kg/ha): 0.0
Postemergence herbicidal rating CASOB ([22]; 0.032 kg/ha): 0.0
Postemergence herbicidal rating CASOB ([22]; 0.062 kg/ha): 0.0
Postemergence herbicidal rating ECHCG ([23]; 0.008 kg/ha): 0.0
Postemergence herbicidal rating ECHCG ([23]; 0.016 kg/ha): 0.0
Postemergence herbicidal rating ECHCG ([23]; 0.032 kg/ha): 0.0
Postemergence herbicidal rating ECHCG ([23]; 0.062 kg/ha): 0.0
Postemergence herbicidal rating ZEAMX ([24]; 0.008 kg/ha): 4.5
Postemergence herbicidal rating ZEAMX ([24]; 0.016 kg/ha): 4.5
Postemergence herbicidal rating ZEAMX ([24]; 0.032 kg/ha): 4.0
Postemergence herbicidal rating ZEAMX ([24]; 0.062 kg/ha): 4.5
